Laboratory results taken from patent publication US20240325458A1, “COMPOSITION FOR PRODUCING BILE ACIDS” (priority 2020, published 2024).

Legend:
[1] = test system: Clostridioides difficile; details: known [36, 40, 41]; cited from earlier work
[2] = test system: T helper 17 (TH17) cells; details: reported [30]; cited from earlier work
[3] = test system: vancomycin-resistant Enterococcus faecium (VRE); assay: Bacterial growth inhibition assay (OD 600); assay type: cell-based
Description: (§1) Clostridioides difficile strain 630 (ATCC BAA-1382), Clostridioides difficile VPI 10463 (ATCC 43255), vancomycin-resistant Enterococcus faecium (ATCC 700221), Streptococcus dysgalactiae subsp. equisimilis (ATCC 12394), carbapenemase-resistant Klebsiella pneumoniae (ATCC BAA-1705), and Salmonella enterica subsp. enterica (ATCC 14028) were purchased from the American Type Culture Collection (ATCC).
(§2) From fresh colonies grown on BHK blood agar plates (Kyokuto), a primary suspension adjusted to OD 600 of 0.63 was prepared in WCA medium. Subsequently, the secondary suspension was prepared by diluting 100 μL of primary suspension into a total of 2.4 mL of medium. 10 μL of secondary suspension was inoculated to a total of 200 μL of medium containing varying concentrations ([…], 6.25, 12.5, 25, and 50 μM) of bile acids; DCA, LCA, 3-oxoLCA, 3-oxoalloLCA, isoLCA, alloLCA, and isoalloLCA. The growth of bacteria was monitored every 0.5-1 hr by OD 600 measurement using a microplate reader (Sunrise Thermo, Tecan) set at 37° C. with a 60 see shaking before each time point. For determining the minimal inhibitory concentration, 10 μL of secondary suspension was inoculated into a total of 200 μL of medium containing 0.25 to 50 μM of isoalloLCA.

[4] = test system: C. difficile 630; assay: Bacterial growth inhibition assay (OD 600); assay type: cell-based, Clostridioides difficile
Description: as §1, §2
Therefore, next, it was investigated whether 3-oxoLCA and isoalloLCA had the ability to inhibit the growth of C. difficile. […]

[5] = test system: C. difficile 630; assay: Electron microscopy (SEM/TEM) after isoalloLCA treatment; assay type: cell-based, Clostridioides difficile; details: 8 μM isoalloLCA, 5 hours, WCA medium
Method: (§3) FIG. 4C is typical scanning electron microscope images (SEM, left panels) and transmission electron microscope images (TEM, right panels) when C. difficile 630 and VRE were cultured for 5 hours in a WCA medium containing or not containing 8 μM isoalloLCA. The scale bars indicate 1.0 μm (SEM), 200 nm (C. difficile 630 TEM), and 500 nm (VRE TEM). The arrows indicate the shape change after isoalloLCA treatment.
(§4) Bacterial cultures incubated with or without isoalloLCA were collected after 5 hr incubation for electron microscopy samples. For scanning electron microscopy, 10-30 μL of culture was spotted on the Nano percolator membrane (JEOL) and fixed in freshly prepared 2.5% glutaraldehyde solution. After overnight fixation at 4° C., samples were washed in 0.1 M phosphate buffer (pH 7.4, Muto Pure Chemicals), fixed with 1.0% osmium tetroxide (TAAB Laboratories) for 2 hr at 4° C., and treated with a series of increasing concentrations of ethanol. Samples were dried up with critical point dryer (CPD300, Leica Biosystems) and coated with about 2 nm thickness of osmium using a conductive osmium coater (Neoc-ST, Meiwafosis). SEM images were acquired using the SU6600 (Hitachi High Tech) at electron voltage of 5 keV.
(§5) For transmission electron microscopy, microbial pellets were prepared by centrifugation (13,000 rpm, 2 min) from 25 mL bacterial cultures. […]

[6] = test system: C. sporogenes, C. indolis, and C. HGF2 (innocuum); assay: Scanning electron microscopy of symbiotic bacteria; assay type: cell-based; details: 2.5 μM isoalloLCA, 5 hours, WCA medium
Method: FIG. 16B is a set of photographs showing typical results obtained by observing C. difficile 630, C. sporogenes, C. indoli, and C. HGF2 (innocuum) with a scanning electron microscope after culturing for 5 hours in a WCA medium containing control or 2.5 μM isoalloLCA. […] Scale bars indicate 5.0 μm and 1.0 μm. The arrowheads indicate a shape change after isoalloLCA treatment.
as §4

[7] = test system: Lactobacillus strain; assay: Growth inhibition of intestinal symbiotic bacteria; assay type: cell-based
[8] = test system: gram-positive symbiotic bacteria; assay: Growth inhibition of intestinal symbiotic bacteria; assay type: cell-based
[9] = test system: human fecal microbiota; assay: Culturing human feces with bile acids, 16S rRNA gene sequencing; assay type: cell-based; details: 50 μM, 48 hr
Method: Human fecal culture was conducted in 96-deep well plates (Treff Lab) using stool samples obtained from young and healthy donors. […] Fecal cultures with a final concentration of 50 μM bile acids (LCA, 3-oxoLCA, and isoalloLCA) were incubated anaerobically for 48 hr at 37° C. DNA was extracted from the fecal sample culture for 16S metagenomic sequencing as described above.
In addition, in order to assess the effects of isoalloLCA on the complex normal intestinal microbiota, human fecal microbiota from young, healthy sample donors were cultured using isoalloLCA, 3-oxoLCA, LCA, or control systems and analyzed for bacterial microbiota changes by 16S rRNA gene sequencing.

[10] = test system: C. difficile VPI10463; assay: Bacterial growth inhibition assay (OD 600); assay type: cell-based, Clostridioides difficile; details: toxin-producing strain
Description: as §1, §2

[11] = test system: gram-negative symbiotic bacteria; assay: Growth inhibition of intestinal symbiotic bacteria; assay type: cell-based; details: most gram-negative symbiotic bacteria such as Bacteroides; WCA and BHI media
[12] = test system: gram-negative pathogens; assay: Bacterial growth inhibition assay, gram-negative pathogen panel; assay type: cell-based; details: all bacteria in the gram-negative pathogen panel
[13] = test system: Treg cells; details: reported [30]; cited from earlier work
[14] = test system: VRE; assay: Electron microscopy (SEM/TEM) after isoalloLCA treatment; assay type: cell-based, Enterococcus faecium; details: 8 μM isoalloLCA, 5 hours, WCA medium
Method: as §3, §4, §5

[15] = molecular target: T1, androgen receptor (AR) (Homo sapiens, UniProt P10275); details: reported [28, 63, 64]; cited from earlier work
T1 sequence (P10275 1-920): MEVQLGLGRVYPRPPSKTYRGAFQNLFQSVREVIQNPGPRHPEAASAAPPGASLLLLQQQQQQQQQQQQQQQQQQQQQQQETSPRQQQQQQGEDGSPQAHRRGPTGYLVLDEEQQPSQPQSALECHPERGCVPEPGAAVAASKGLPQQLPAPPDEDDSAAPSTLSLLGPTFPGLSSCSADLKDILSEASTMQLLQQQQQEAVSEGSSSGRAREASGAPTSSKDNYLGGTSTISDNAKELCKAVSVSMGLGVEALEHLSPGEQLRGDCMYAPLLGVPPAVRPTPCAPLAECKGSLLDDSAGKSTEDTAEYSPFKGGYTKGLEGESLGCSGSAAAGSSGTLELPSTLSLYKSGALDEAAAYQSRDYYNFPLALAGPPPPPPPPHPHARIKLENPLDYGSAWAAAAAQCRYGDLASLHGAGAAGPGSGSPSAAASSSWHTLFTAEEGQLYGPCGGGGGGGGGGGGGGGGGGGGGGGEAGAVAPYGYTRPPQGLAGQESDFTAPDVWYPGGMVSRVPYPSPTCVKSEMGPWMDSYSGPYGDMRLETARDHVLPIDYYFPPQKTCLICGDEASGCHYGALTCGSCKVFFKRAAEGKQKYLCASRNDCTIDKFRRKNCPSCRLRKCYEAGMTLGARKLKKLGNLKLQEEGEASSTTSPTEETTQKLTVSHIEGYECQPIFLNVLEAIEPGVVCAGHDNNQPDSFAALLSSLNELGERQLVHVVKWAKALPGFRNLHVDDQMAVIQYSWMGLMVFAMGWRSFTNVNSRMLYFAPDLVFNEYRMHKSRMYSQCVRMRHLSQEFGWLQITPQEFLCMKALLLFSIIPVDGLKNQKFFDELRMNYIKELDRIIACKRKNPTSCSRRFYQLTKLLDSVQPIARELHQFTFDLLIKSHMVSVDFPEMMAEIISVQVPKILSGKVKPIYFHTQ

[16] = molecular target: estrogen receptor R (ER) (Homo sapiens, UniProt Q92731); details: reported [63, 64]; cited from earlier work
[17] = test system: prostate cancer cell; details: by reducing E-cadherin expression; reported [63, 64]; cited from earlier work
[18] = compared to other bile acid compounds

Chain of estrogen receptor R (ER) (Q92731 whole entry): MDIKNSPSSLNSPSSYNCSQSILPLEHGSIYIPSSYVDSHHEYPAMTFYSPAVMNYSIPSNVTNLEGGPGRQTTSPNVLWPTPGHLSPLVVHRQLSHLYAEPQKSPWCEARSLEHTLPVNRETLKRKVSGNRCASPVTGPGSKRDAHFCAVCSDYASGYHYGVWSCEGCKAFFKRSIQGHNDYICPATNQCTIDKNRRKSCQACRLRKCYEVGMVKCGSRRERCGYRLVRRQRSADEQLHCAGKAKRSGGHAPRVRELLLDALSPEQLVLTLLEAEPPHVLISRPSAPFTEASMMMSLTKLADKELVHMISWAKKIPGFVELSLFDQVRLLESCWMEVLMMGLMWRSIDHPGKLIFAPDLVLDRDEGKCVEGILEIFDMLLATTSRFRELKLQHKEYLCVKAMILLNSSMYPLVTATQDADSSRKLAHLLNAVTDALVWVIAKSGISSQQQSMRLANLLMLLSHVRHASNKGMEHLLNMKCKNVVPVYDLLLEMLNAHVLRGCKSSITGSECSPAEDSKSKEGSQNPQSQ

Question: Which results are given for C[C@H](CCC(=O)O)[C@H]1CC[C@H]2[C@@H]3CC[C@@H]4C[C@@H](O)CC[C@]4(C)[C@H]3CC[C@]12C [isoLCA, Iso-lithocholic acid]?
Answer: inhibition of growth of Clostridioides difficile [1]: inhibiting the growth; TH17 cell suppression [2]: suppress T helper 17 (TH17) cells

Question: Which TH17 cell suppression [2] does the source give for C[C@H](CCC(=O)O)[C@H]1CC[C@H]2[C@@H]3CC[C@@H]4CC(=O)CC[C@]4(C)[C@H]3CC[C@]12C [St 3-oxoLCA, 3-Oxo-lithocholic acid, reference compound] here?
Answer: suppress T helper 17 (TH17) cells

Question: Which growth inhibition [3] does the source give for C[C@H](CCC(=O)O)[C@H]1CC[C@H]2[C@@H]3CC[C@H]4C[C@@H](O)CC[C@]4(C)[C@H]3CC[C@]12C [isoalloLCA, Iso-allo-lithocholic acid] here?
Answer: Strong growth inhibition

Question: What about the “minimum inhibitory concentration (MIC90) required to prevent growth of 90% or more” value ([4]; WCA medium) of the same compound?
Answer: 2.0 µM

Question: What about the growth inhibition ([4]; in vitro, optical density over time) of the same compound?
Answer: strongly inhibited the growth

Question: What about the “bactericidal effect, morphological and hyperfine structure changes” value [5] of the same compound?
Answer: bactericidal and results in morphological changes and hyperfine structure changes

Question: What about the “cell wall structure by scanning electron microscopy” value [6] of the same compound?
Answer: cell wall structure of the symbiotic bacteria was maintained

Question: And the “resistance to the inhibitory effect” value [7]?
Answer: highly resistant

Question: What about the “MIC90 value of the symbiotic strains relative to pathogens” value [8] of the same compound?
Answer: generally higher than that of the pathogens

Question: What about the “resistance of symbiotic strain in BHI medium compared to WCA medium” value ([8]; BHI medium rich in peptone and amino acids) of the same compound?
Answer: increased resistance

Question: What about the effect on growth ([8]; WCA and BHI media) of the same compound?
Answer: reliably inhibited the growth

Question: What about the “change in gram-negative bacteria (Bacteroides, Alistipes)” value [9, 18] of the same compound?
Answer: corresponding increase

Question: And the “change in gram-positive bacteria (Clostridium, Faecalibacterium, Bifidobacterium, Streptococcus)” value [9, 18]?
Answer: more pronounced decrease

Question: What about the “α-diversity (Shannon index) of fecal culture” value ([9]; feces of young healthy donors) of the same compound?
Answer: not significantly affected

Question: What about the bacterial community structure ([9]; phylum level) of the same compound?
Answer: clear widespread change in the bacterial community structure

Question: And the growth inhibition [10]?
Answer: Strong growth inhibition

Question: And the effect on growth [11]?
Answer: did not significantly affect the growth

Question: And the “resistant at the highest concentration tested” value [12]?
Answer: > 50 µM

Question: What about the Treg cell induction [13] of the same compound?
Answer: induces Treg cells

Question: And the “bactericidal effect, morphological and hyperfine structure changes” value [14]?
Answer: bactericidal and results in morphological changes and hyperfine structure changes

Question: With C[C@]12CC[C@H](O)C[C@@H]1CC[C@@H]1[C@@H]2CC[C@]2(C)[C@@H](O)CC[C@@H]12 [3β-androstanediol] as the compound, how does the “binding to AR” value [15] read?
Answer: without binding to AR

Question: And the estrogen receptor activation [16]?
Answer: activates estrogen receptor R (ER)

Question: What about the “prostate cancer cell migration” value [17] of the same compound?
Answer: inhibits prostate cancer cell migration
